Drawing on patent publication US9822103B2, “Inhibitors of lysine methyl transferase” (priority 2013, dated 2017), this text covers IC50 for twelve compounds.

The structures appear in SMILES notation.

This assay deals with recombinant EZH2-641F complex (EZH2 Y641F/EED/SUZ12/RbAp48/AEBP2) (Homo sapiens (Human), UniProt Q15910, Y641F). The experiment in a line: EZH2 Histone Methyl Transferase Assay (scintillation proximity assay). The class given is biochemical. As to conditions: 350 nM histone peptide substrate, 500 nM 3H-SAM, 3 hours room temperature. As for the experimental part: EZH2 Histone Methyl Transferase Assay
recombinant EZH2-641F complex (EZH2 Y641F/EED/SUZ12/RbAp48/AEBP2), sequence (Q15910 whole entry Y641F): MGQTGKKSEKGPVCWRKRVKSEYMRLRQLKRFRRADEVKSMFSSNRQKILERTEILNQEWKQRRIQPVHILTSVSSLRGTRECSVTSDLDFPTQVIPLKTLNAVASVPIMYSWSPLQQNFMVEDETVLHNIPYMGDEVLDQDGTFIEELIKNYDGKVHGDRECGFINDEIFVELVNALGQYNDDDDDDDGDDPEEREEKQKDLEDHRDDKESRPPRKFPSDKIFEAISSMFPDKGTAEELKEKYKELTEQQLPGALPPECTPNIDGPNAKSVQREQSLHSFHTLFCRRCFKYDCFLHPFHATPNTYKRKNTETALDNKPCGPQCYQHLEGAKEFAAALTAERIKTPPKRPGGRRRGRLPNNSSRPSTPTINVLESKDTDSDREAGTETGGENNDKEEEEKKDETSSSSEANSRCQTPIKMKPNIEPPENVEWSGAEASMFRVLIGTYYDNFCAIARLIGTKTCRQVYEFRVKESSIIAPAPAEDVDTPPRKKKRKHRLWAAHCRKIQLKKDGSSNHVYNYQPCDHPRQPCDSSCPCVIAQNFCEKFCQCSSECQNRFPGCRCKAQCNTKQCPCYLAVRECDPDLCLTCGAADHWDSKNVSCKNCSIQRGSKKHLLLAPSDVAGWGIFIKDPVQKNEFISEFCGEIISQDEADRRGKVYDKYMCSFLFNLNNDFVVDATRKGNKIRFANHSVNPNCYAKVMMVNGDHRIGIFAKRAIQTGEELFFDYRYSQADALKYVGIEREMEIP
recombinant EZH2-641F complex (EZH2 Y641F/EED/SUZ12/RbAp48/AEBP2), sequence (O75530 whole entry partner): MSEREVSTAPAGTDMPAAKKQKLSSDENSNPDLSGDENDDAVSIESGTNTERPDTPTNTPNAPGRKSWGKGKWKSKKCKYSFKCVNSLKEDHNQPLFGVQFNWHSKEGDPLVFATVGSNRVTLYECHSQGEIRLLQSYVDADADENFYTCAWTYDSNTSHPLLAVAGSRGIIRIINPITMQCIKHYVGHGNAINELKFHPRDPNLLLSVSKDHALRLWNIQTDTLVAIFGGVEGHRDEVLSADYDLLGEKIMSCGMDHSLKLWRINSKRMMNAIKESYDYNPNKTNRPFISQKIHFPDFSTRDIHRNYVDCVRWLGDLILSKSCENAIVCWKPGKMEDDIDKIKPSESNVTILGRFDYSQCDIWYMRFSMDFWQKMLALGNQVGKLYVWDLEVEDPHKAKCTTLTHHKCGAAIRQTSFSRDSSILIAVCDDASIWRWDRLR
recombinant EZH2-641F complex (EZH2 Y641F/EED/SUZ12/RbAp48/AEBP2), sequence (Q15022 whole entry partner): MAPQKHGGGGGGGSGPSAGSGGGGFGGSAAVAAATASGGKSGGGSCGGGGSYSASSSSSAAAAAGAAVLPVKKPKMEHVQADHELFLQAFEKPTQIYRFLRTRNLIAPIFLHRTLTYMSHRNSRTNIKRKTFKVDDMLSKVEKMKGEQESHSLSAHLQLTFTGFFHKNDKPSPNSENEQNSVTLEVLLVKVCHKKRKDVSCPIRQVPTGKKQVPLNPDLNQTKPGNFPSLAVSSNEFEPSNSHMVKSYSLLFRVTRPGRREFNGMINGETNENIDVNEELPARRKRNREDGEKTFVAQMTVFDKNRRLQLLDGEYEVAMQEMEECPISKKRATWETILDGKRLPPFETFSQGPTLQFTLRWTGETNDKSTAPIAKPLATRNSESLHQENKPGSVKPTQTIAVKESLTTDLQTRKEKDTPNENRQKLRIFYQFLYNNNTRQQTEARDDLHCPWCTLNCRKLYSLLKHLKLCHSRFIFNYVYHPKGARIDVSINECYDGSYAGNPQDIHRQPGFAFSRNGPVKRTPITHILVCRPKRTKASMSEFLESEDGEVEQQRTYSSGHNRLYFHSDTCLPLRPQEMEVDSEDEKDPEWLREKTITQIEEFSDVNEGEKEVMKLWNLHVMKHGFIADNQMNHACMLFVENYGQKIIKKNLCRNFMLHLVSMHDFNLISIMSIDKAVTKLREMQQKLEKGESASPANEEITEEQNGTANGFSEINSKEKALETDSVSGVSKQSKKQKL
recombinant EZH2-641F complex (EZH2 Y641F/EED/SUZ12/RbAp48/AEBP2), sequence (Q09028 whole entry partner): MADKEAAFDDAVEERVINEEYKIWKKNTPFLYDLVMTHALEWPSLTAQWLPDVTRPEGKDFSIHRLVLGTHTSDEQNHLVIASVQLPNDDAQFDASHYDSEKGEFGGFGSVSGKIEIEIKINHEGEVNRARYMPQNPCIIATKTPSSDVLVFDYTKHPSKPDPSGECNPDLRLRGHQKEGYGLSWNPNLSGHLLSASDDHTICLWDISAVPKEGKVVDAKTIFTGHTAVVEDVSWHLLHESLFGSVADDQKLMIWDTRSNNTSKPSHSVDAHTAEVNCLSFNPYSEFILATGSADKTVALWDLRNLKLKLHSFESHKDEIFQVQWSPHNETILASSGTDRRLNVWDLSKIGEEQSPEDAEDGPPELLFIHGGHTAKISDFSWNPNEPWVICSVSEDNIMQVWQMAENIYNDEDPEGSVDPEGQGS
recombinant EZH2-641F complex (EZH2 Y641F/EED/SUZ12/RbAp48/AEBP2), sequence (Q6ZN18 whole entry partner): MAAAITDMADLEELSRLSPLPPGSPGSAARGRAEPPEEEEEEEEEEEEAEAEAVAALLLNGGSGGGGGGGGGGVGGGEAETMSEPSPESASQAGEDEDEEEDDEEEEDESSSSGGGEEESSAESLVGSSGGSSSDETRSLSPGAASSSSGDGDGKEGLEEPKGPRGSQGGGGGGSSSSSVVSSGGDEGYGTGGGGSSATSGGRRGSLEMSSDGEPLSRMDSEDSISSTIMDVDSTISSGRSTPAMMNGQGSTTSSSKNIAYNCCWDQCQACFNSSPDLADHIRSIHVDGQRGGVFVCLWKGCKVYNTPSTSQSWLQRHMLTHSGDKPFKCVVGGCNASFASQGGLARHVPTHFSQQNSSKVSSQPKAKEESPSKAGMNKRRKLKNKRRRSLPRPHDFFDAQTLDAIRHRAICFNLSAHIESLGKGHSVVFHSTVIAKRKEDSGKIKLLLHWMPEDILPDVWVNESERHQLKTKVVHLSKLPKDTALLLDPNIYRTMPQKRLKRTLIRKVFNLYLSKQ
The effectiveness of compounds of the present invention as inhibitors of histone methyl transferases can be readily tested by assays known to those skilled in the art. For example, in vitro histone methyl transferase assays may be conducted with a relevant purified histone methyl transferase and an appropriate synthetic substrate to determine the inhibitory activity of the compounds. Assays for inhibition of EZH2 by the instant compounds were performed in 384-well plates with reaction mixtures containing 350 nM of histone peptide substrate (ATKAAR-K(Me2)-SAPATGGVKKPHRYRPG-GK(Biotin), 500 nM S-[methyl-^3H]adenosyl-L-methionine (55-85 Ci/mmol), 50 mM Tris-HCl (pH 9.0), 50 mM NaCl, 1 mM dithiothreitol, Tween-20 at 0.01% and fatty-acid free bovine serum albumin at 0.01%, and recombinant EZH2-641F complex (EZH2 Y641F/EED/SUZ12/RbAp48/AEBP2) at 5 nM (>98% purity, BPS Bioscience) or 15 nM (50% purity, in-house). Reaction mixtures were incubated at room temperature for 3 hours, and the reactions were terminated by 0.005% poly-L-lysine solution in 20 mM Tris-HCl (pH 7.5) and 150 mM NaCl. Reaction products were captured by binding to strepavidin-conjugated imaging beads. Incorporation of radioactive methyl group into the histone peptide substrate was determined in Leadseeker (GE Healthcare) by means of scintillation proximity assay. Dose response curves were generated to determine the concentration required to inhibit 50% of methyl transferase activity (EC50). Compounds were dissolved at 10 mM in dimethylsulfoxide (DMSO) and evaluated at eleven concentrations. EC50 values were derived by non-linear regression analysis.
`Cc1cc(C)c(CNC(=O)c2cc3c(c(-c4cnc(N5CCNCC5)nc4)c2)OC(C)(C)C3)c(=O)[nH]1` [Example 20, N-((4,6-Dimethyl-2-oxo-1,2-dihydropyridin-3-yl)methyl)-2,2-dimethyl-7-(2-(piperazin-1-yl)pyrimidin-5-yl)-2,3-dihydrobenzofuran-5-carboxamide]: the IC50 is under 500 nM.

As for `Cc1cc(C)c(CNC(=O)c2cc(Cc3ccccc3)c3c(c2)CC(C)(C)O3)c(=O)[nH]1` [Example 21, 7-Benzyl-N-((4,6-dimethyl-2-oxo-1,2-dihydropyridin-3-yl)methyl)-2,2-dimethyl-2,3-dihydrobenzofuran-5-carboxamide], the IC50 is over 1000 nM.

Consider `Cc1cc(C)c(CNC(=O)c2cc(C#N)c3c(c2)CC(C)(C)O3)c(=O)[nH]1` [Example 22, 7-Cyano-N-((4,6-dimethyl-2-oxo-1,2-dihydropyridin-3-yl)methyl)-2,2-dimethyl-2,3-dihydrobenzofuran-5-carboxamide], for which the IC50 is over 1000 nM.

On to `CCCc1cc(C)[nH]c(=O)c1CNC(=O)c1cc(Cl)c2c(c1)CC(C)(C)O2` [Example 23, 7-Chloro-2,2-dimethyl-N-((6-methyl-2-oxo-4-propyl-1,2-dihydropyridin-3-yl)methyl)-2,3-dihydrobenzofuran-5-carboxamide], for which the IC50 was over 1000 nM.

`CCCc1cc(C)[nH]c(=O)c1CNC(=O)c1cc(Br)c2c(c1)CC(C)(C)O2` [Example 24, 7-Bromo-2,2-dimethyl-N-((6-methyl-2-oxo-4-propyl-1,2-dihydropyridin-3-yl)methyl)-2,3-dihydrobenzofuran-5-carboxamide]: the IC50 is over 1000 nM.

On to `COc1ccc(-c2cc(C(=O)NCc3c(C)cc(C)[nH]c3=O)c(C)c3c2OC(C)(C)C3)cn1` [Example 25, N-((4,6-Dimethyl-2-oxo-1,2-dihydropyridin-3-yl)methyl)-7-(6-methoxypyridin-3-yl)-2,2,4-trimethyl-2,3-dihydrobenzofuran-5-carboxamide], for which the IC50 fell in the range of 500 to 1000 nM.

With `Cc1cc(C)c(CNC(=O)c2cc(-c3ccc(N4CCNCC4)nc3)c3c(c2C)CC(C)(C)O3)c(=O)[nH]1` [Example 26, N-((4,6-Dimethyl-2-oxo-1,2-dihydropyridin-3-yl)methyl)-2,2,4-trimethyl-7-(6-(piperazin-1-yl)pyridin-3-yl)-2,3-dihydrobenzofuran-5-carboxamide], the IC50 was under 500 nM.

On to `Cc1cc(C)c(CNC(=O)c2cc(-c3ccc(N4CCOCC4)nc3)c3c(c2)C(C)CO3)c(=O)[nH]1` (stereo not drawn) [Example 27, N-((4,6-Dimethyl-2-oxo-1,2-dihydropyridin-3-yl)methyl)-3-methyl-7-(6-morpholinopyridin-3-yl)-2,3-dihydrobenzofuran-5-carboxamide], for which the IC50 was over 1000 nM.

`Cc1cc(C)c(CNC(=O)c2cc(-c3ccc(CN4CCOCC4)cc3)c3c(c2)C(C)CO3)c(=O)[nH]1` (stereo not drawn) [Example 28, N-((4,6-Dimethyl-2-oxo-1,2-dihydropyridin-3-yl)methyl)-3-methyl-7-(4-(morpholinomethyl)phenyl)-2,3-dihydrobenzofuran-5-carboxamide]: the IC50 was over 1000 nM.

As to `Cc1cc(C)c(CNC(=O)c2cc(-c3ccc(N4CCNCC4)nc3)c3c(c2)C(C)CO3)c(=O)[nH]1` (stereo not drawn) [Example 29, N-((4,6-Dimethyl-2-oxo-1,2-dihydropyridin-3-yl)methyl)-3-methyl-7-(6-(piperazin-1-yl)pyridin-3-yl)-2,3-dihydrobenzofuran-5-carboxamide], the IC50 was over 1000 nM.

As for `COc1ccc(-c2cc(C(=O)NCc3c(C)cc(C)[nH]c3=O)cc3c2OCC3C)cn1` (stereo not drawn) [Example 30, N-((4,6-Dimethyl-2-oxo-1,2-dihydropyridin-3-yl)methyl)-7-(6-methoxypyridin-3-yl)-3-methyl-2,3-dihydrobenzofuran-5-carboxamide], the IC50 is over 1000 nM.

Consider `Cc1cc(C)c(CNC(=O)c2cc(Br)c3c(c2)CC(C)O3)c(=O)[nH]1` (stereo not drawn) [Example 31, 7-Bromo-N-((4,6-dimethyl-2-oxo-1,2-dihydropyridin-3-yl)methyl)-2-methyl-2,3-dihydrobenzofuran-5-carboxamide], for which the IC50 is over 1000 nM.

As a reminder, the IC50 is the point on the concentration scale where inhibition reaches its midpoint.
